US10493070B2 (priority 2016, dated 2019)

test system: recombinant NL4-3 virus (NLRluc, Renilla luciferase in nef, Gag P373S); assay: HIV cell culture assay (Renilla luciferase reporter virus in MT-2 cells); assay type: cell-based; settings: Renilla, NL43, read-out: 10% FBS EC50, 10% FBS, class symbols A/B/C
Procedure: MT-2 cells and 293T cells were obtained from the NIH AIDS Research and Reference Reagent Program. MT-2 cells were propagated in RPMI 1640 media supplemented with 10% heat inactivated fetal bovine serum, […]. The 293T cells were propagated in DMEM media supplemented with 10% heat inactivated fetal bovine serum (FBS), 100 units/ml penicillin G and 100 μg/ml streptomycin. The proviral DNA clone of NL4-3 was obtained from the NIH AIDS Research and Reference Reagent Program. A recombinant NL4-3 virus, in which a section of the nef gene from NL4-3 was replaced with the Renilla luciferase gene, was used as a reference virus. In addition, residue Gag P373 was converted to P373S. Briefly, the recombinant virus was prepared by transfection of the altered proviral clone of NL4-3. Transfections were performed in 293T cells using LipofectAMINE PLUS from Invitrogen (Carlsbad, Calif.), according to manufacturer's instruction. The virus was titered in MT-2 cells using luciferase enzyme activity as a marker. Luciferase was quantitated using the Dual Luciferase kit from Promega (Madison, Wis.), with modifications to the manufacturer's protocol. The diluted Passive Lysis solution was pre-mixed with the re-suspended Luciferase Assay Reagent and the re-suspended Stop & Glo Substrate (2:1:1 ratio). Fifty (50) μL of the mixture was added to each aspirated well on assay plates and luciferase activity was measured immediately on a Wallac TriLux (Perkin-Elmer). Antiviral activities of inhibitors toward the recombinant virus were quantified by measuring luciferase activity in cells infected for 4-5 days with NLRluc recombinants in the presence serial dilutions of the inhibitor. Table 16 is the key for the data in Table 17.

SMILES	EC50 [µM]
CC1(C)C(c2ccc(C(=O)O)cc2)=CC[C@]2(C)CN(C(=O)c3cccc(N4CCOCC4)c3)CC=C12 [Example 27]	> 3
CC1(C)C(c2ccc(C(=O)O)cc2)=CC[C@]2(C)CN(C(=O)c3cccc(F)c3)CC=C12 [Example 2]	> 3
CC1(C)C(c2ccc(C(=O)O)cc2)=CC[C@]2(C)CN(c3ccc(C(N)=O)cc3)CC=C12 [Example B17]	> 3
CCOC(=O)c1cnc(N2CC=C3C(C)(C)C(c4ccc(C(=O)O)cc4)=CC[C@]3(C)C2)s1 [Example B14]	0.5 to 3
CC1(C)C(c2ccc(C(=O)O)cc2)=CC[C@]2(C)CN(C(=O)c3ccccc3-c3nc4ccc(Cl)cc4o3)CC=C12 [Example A318]	< 0.5
CC1(C)C(c2ccc(C(=O)O)cc2)=CC[C@]2(C)CN(C(=O)C(=O)O)CC=C12 [Example 10]	> 3
CC1(C)C(c2ccc(C(=O)O)cc2)=CC[C@]2(C)CN(C(=O)c3cc(F)cc(F)c3)CC=C12 [Example 8]	> 3
CC1(C)C(c2ccc(C(=O)O)cc2)=CC[C@]2(C)CN(C(=O)c3ccccc3)CC=C12 [Example 1, (S)-4-(2-benzoyl-5,5,8a-trimethyl-1,2,3,5,8,8a-hexahydroisoquinolin-6-yl)benzoic acid]	> 3
CC1(C)C(c2ccc(C(=O)O)cc2)=CC[C@]2(C)CN(C(=O)c3ccc(C(=O)O)cc3)CC=C12 [Example 13]	> 3
CC1(C)C(c2ccc(C(=O)O)cc2)=CC[C@]2(C)CN(C(=O)c3ccc(C(=O)NCCCN4CCS(=O)(=O)CC4)s3)CC=C12 [Example 72]	> 3
CC1(C)C(c2ccc(C(=O)O)cc2)=CC[C@]2(C)CN(C(=O)c3nc4ccccc4[nH]3)CC=C12 [Example A66]	> 3
CC1(C)C(c2ccc(C(=O)O)cc2)=CC[C@]2(C)CN(c3ncc(C(=O)O)s3)CC=C12 [Example B12]	> 3
CC1(C)C(c2ccc(C(=O)O)cc2)=CC[C@]2(C)CN(c3ncc(Br)s3)CC=C12 [Example 77]	> 3
CC1(C)C(c2ccc(C(=O)O)cc2)=CC[C@]2(C)CN(C(=O)c3cccc(C(=O)N4CCS(=O)(=O)CC4)c3)CC=C12 [Example 68]	> 3
CC1(C)C(c2ccc(C(=O)O)cc2)=CC[C@]2(C)CN(c3cc(C(=O)O)cc([N+](=O)[O-])c3)CC=C12 [Example B15]	> 3
CC1(C)C(c2ccc(C(=O)O)cc2)=CC[C@]2(C)CN(C(=O)c3ccc(F)cc3F)CC=C12 [Example 5]	> 3
CC1(C)C(c2ccc(C(=O)O)cc2)=CC[C@]2(C)CN(C(=O)CN3CCS(=O)(=O)CC3)CC=C12 [Example 37]	> 3

SMILES	EC50 [µM]
CC1(C)C(c2ccc(C(=O)O)cc2)=CC[C@]2(C)CN(C(=O)c3ccc(F)cc3)CC=C12 [Example 3]	> 3
COc1ccc(OC)c2[nH]c(-c3ccccc3C(=O)N3CC=C4C(C)(C)C(c5ccc(C(=O)O)cc5)=CC[C@]4(C)C3)nc12 [Example A299]	< 0.5
COc1ccc2nc(-c3ccccc3C(=O)N3CC=C4C(C)(C)C(c5ccc(C(=O)O)cc5)=CC[C@]4(C)C3)oc2c1 [Example A334]	< 0.5
CC1(C)C(c2ccc(C(=O)O)cc2)=CC[C@]2(C)CN(CCN3CCS(=O)(=O)CC3)CC=C12 [Example 79]	> 3
CC(C)(C)OC(=O)N1CCN(c2ccccc2C(=O)N2CCC3C(C)(C)C(c4ccc(C(=O)O)cc4)CC[C@]3(C)C2)CC1 (stereo partly drawn) [Example 83, 4-((8aS)-2-(2-(4-(tert-butoxycarbonyl)piperazin-1-yl)benzoyl)-5,5,8a-trimethyldecahydroisoquinolin-6-yl)benzoic acid]	< 0.5
CC1(C)C2CCN(C(=O)c3ccccc3-c3nc4ccccc4[nH]3)C[C@@]2(C)CC[C@@H]1c1ccc(C(=O)O)cc1 (stereo partly drawn) [Example 85]	< 0.5
Cc1ccc2nc(-c3ccccc3C(=O)N3CC=C4C(C)(C)C(c5ccc(C(=O)O)cc5)=CC[C@]4(C)C3)[nH]c2c1C [Example 98]	< 0.5
CC1(C)C(c2ccc(C(=O)O)cc2)=CC[C@]2(C)CN(C(=O)c3cccc(C(N)=O)c3)CC=C12 [Example 21]	> 3
CC1(C)C(c2ccc(C(=O)O)cc2)=CC[C@]2(C)CN(C(=O)c3cc(F)ccc3F)CC=C12 [Example 6]	> 3
CC1(C)C(c2ccc(C(=O)O)cc2)=CC[C@]2(C)CN(C(=O)c3ccccc3C(=O)N3CC=C4C(C)(C)C(c5ccc(C(=O)O)cc5)=CC[C@]4(C)C3)CC=C12 [Example 60]	0.5 to 3
CC(C)C[C@H](NC(=O)OC(C)(C)C)C(=O)N1CCC(C(=O)N2CC=C3C(C)(C)C(c4ccc(C(=O)O)cc4)=CC[C@]3(C)C2)(c2ccccc2)CC1 [Example 93]	< 0.5
CC1(C)C(c2ccc(C(=O)O)cc2)=CC[C@]2(C)CN(C(=O)c3ccccc3-c3nc4cc(Cl)c(Cl)cc4[nH]3)CC=C12 [Example A265]	< 0.5
Cn1c(-c2ccccc2C(=O)N2CC=C3C(C)(C)C(c4ccc(C(=O)O)cc4)=CC[C@]3(C)C2)nc2ccccc21 [Example A274]	> 3
CC1(C)C(c2ccc(C(=O)O)cc2)=CC[C@]2(C)CN(C(=O)c3ccc(C(=O)N4CCS(=O)(=O)CC4)cc3)CC=C12 [Example 69]	> 3
CC1(C)C(c2ccc(C(=O)O)cc2)=CC[C@]2(C)CN(C(=O)c3ccccc3C(=O)N3CCS(=O)(=O)CC3)CC=C12 [Example 67]	> 3
CC1(C)C(c2ccc(C(=O)O)cc2)=CC[C@]2(C)CN(C(=O)c3ccccc3C(N)=O)CC=C12 [Example 20]	> 3

same assay, conditions: Renilla, NL43, read-out: 10% FBS EC50, 10% FBS, numeric values

SMILES	EC50 [µM]
CC(C)C[C@@H](NC(=O)OC(C)(C)C)C(=O)N1CCC(C(=O)N2CC=C3C(C)(C)C(c4ccc(C(=O)O)cc4)=CC[C@]3(C)C2)(c2ccccc2)CC1 [Example 92, 4-((S)-2-(1-((tert-butoxycarbonyl)-D-leucyl)-4-phenylpiperidine-4-carbonyl)-5,5,8a-trimethyl-1,2,3,5,8,8a-hexahydroisoquinolin-6-yl)benzoic acid]	0.008
Cn1nc(-c2ccccc2)c(C(=O)N2CC=C3C(C)(C)C(c4ccc(C(=O)O)cc4)=CC[C@]3(C)C2)c1Cl [Example A79]	0.87
CC1(C)C(c2ccc(C(=O)O)cc2)=CC[C@]2(C)CN(C(=O)c3ccccc3-c3nc4ccccc4[nH]3)CC=C12 [Example A114]	0.052
CC1(C)C(c2ccc(C(=O)O)cc2)=CC[C@]2(C)CN(C(=O)C3(c4ccccc4)CCN(CCN4CCS(=O)(=O)CC4)CC3)CC=C12 [Example 96, (S)-4-(2-(1-(2-(1,1-dioxidothiomorpholino)ethyl)-4-phenylpiperidine-4-carbonyl)-5,5,8a-trimethyl-1,2,3,5,8,8a-hexahydroisoquinolin-6-yl)benzoic acid]	1.35
CC1(C)C(c2ccc(C(=O)O)cc2)=CC[C@]2(C)CN(C(=O)c3cscc3C(=O)N3CC=C4C(C)(C)C(c5ccc(C(=O)O)cc5)=CC[C@]4(C)C3)CC=C12 [Example 64]	1.06
CC1(C)C(c2ccc(C(=O)O)cc2)=CC[C@]2(C)CN(C(=O)c3[nH]c4ccccc4c3-c3ccccc3)CC=C12 [Example A112]	1.1
CC1(C)C(c2ccc(C(=O)O)cc2)=CC[C@]2(C)CN(C(=O)c3c(-c4ccccc4)nc4ccccn34)CC=C12 [Example A91]	0.711
CC1(C)C(c2ccc(C(=O)O)cc2)=CC[C@]2(C)CN(c3nc(C(=O)O)cs3)CC=C12 [Example B16]	1.48
Cc1ccc2nc(-c3ccccc3C(=O)N3CC=C4C(C)(C)C(c5ccc(C(=O)O)cc5)=CC[C@]4(C)C3)oc2c1 [Example A326]	0.257
CC1(C)C(c2ccc(C(=O)O)cc2)=CC[C@]2(C)CN(C3CCC(CN)(c4ccccc4)CC3)CC=C12 (stereo partly drawn) [Example C3, (S)-4-(2-(4-(aminomethyl)-4-phenylcyclohexyl)-5,5,8a-trimethyl-1,2,3,5,8,8a-hexahydroisoquinolin-6-yl)benzoic acid]	0.15
COc1ccc2oc(-c3ccccc3C(=O)N3CC=C4C(C)(C)C(c5ccc(C(=O)O)cc5)=CC[C@]4(C)C3)nc2c1 [Example A320]	0.183
CC1(C)C(c2ccc(C(=O)O)cc2)=CC[C@]2(C)CN(C(=O)c3ccccc3N3CCOCC3)CC=C12 [Example 26]	0.63
CC1(C)C(c2ccc(C(=O)O)cc2)=CC[C@]2(C)CN(C(=O)c3ccccc3-c3nc4cc(C(=O)c5ccccc5)ccc4[nH]3)CC=C12 [Example A281]	0.95
COc1ccccc1C(=O)N1CC=C2C(C)(C)C(c3ccc(C(=O)O)cc3)=CC[C@]2(C)C1 [Example 17]	1.69
COc1ccc(S(=O)(=O)Cc2ccccc2)cc1C(=O)N1CC=C2C(C)(C)C(c3ccc(C(=O)O)cc3)=CC[C@]2(C)C1 [Example 32]	0.66
CC1(C)C(c2ccc(C(=O)O)cc2)=CC[C@]2(C)CN(C(=O)c3ccccc3-c3nc4ccccc4n3C3CCN(Cc4ccccc4)CC3)CC=C12 [Example A280]	0.55
CC(C)(C)OC(=O)N1CCC(C)(C(=O)N2CC=C3C(C)(C)C(c4ccc(C(=O)O)cc4)=CC[C@]3(C)C2)CC1 [Example 48]	0.27
CC(C)(C)OC(=O)N1CCC(Cc2ccccc2)(C(=O)N2CC=C3C(C)(C)C(c4ccc(C(=O)O)cc4)=CC[C@]3(C)C2)CC1 [Example 47]	1.07
